Test results reported in PubChem BioAssay AID330 (DTP/NCI, 2004).
Several values for one entry are separate records, joined by “and”; a condition that tells them apart may be missing. Equal entries are not always repeated. Toxic doses and inconclusive results are not listed.

System: P388 leukemia ip, CD2F1 mice, survival T/C
Experiment: NCI In Vivo Anticancer Drug Screen. Data for tumor model P388 Leukemia (intraperitoneal) in CD2F1 (CDF1) mice
Conditions: endpoint: median survival time, higher = longer survival
Outline: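 Mice carrying the transplanted tumor received test compound or vehicle. Survival was recorded in each group, and the value is the treated-group measurement divided by that of the vehicle-treated control group.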

[1] = dose: 50.0 mg/kg/injection, schedule: Q01DX009 (ip), vehicle: Klucel (hydroxypropylcellulose) (HPC)
[2] = dose: 100.0 mg/kg/injection, schedule: Q01DX009 (ip), vehicle: Klucel (hydroxypropylcellulose) (HPC)
[3] = dose: 200.0 mg/kg/injection, schedule: Q01DX009 (ip), vehicle: Klucel (hydroxypropylcellulose) (HPC)
[4] = dose: 100.0 mg/kg/injection, schedule: Q01DX009 (ip), vehicle: saline with Tween-80
[5] = dose: 200.0 mg/kg/injection, schedule: Q01DX009 (ip), vehicle: saline with Tween-80
[6] = dose: 400.0 mg/kg/injection, schedule: Q01DX009 (ip), vehicle: saline with Tween-80

With CCCCC1(CC(=O)OCC)SCCN1C(N)=O (stereo unspecified) the T/C [1] was 100 % of control, the T/C [2] was 108 % of control and the T/C [3] was 106 % of control.

In the case of CN(C)N=Nc1ccc(C(=O)NC(Cc2ccccc2)C(=O)O)cc1 (stereo unspecified), the T/C (dose: 12.5 mg/kg/injection, schedule: Q01DX005 (ip), vehicle: Klucel (hydroxypropylcellulose) (HPC)) is reported as 100 % of control, the T/C (dose: 25.0 mg/kg/injection, schedule: Q01DX005 (ip), vehicle: Klucel (hydroxypropylcellulose) (HPC)) is reported as 101 % of control and the T/C (dose: 50.0 mg/kg/injection, schedule: Q01DX005 (ip), vehicle: Klucel (hydroxypropylcellulose) (HPC)) is reported as 98 % of control and 102 % of control. For the same compound, the T/C (dose: 200.0 mg/kg/injection, schedule: Q01DX005 (ip), vehicle: Klucel (hydroxypropylcellulose) (HPC)) was 107 % of control.

CCN(CC)c1ccc2nc3c4ccccc4c(=O)cc-3n(-c3ccccc3)c2c1 was tested, and the T/C [4] was 99 % of control, the T/C [5] was 101 % of control and the T/C [6] was 115 % of control.

With OCC(O)C(O)C(O)c1nnc2c3ccccc3c(-c3ccccc3)nn12 (stereo unspecified) the T/C (dose: 100.0 mg/kg/injection, schedule: Q01DX001 (ip), vehicle: saline with Tween-80) was 89 % of control, the T/C (dose: 100.0 mg/kg/injection, schedule: Q04DX002 (ip), vehicle: saline with Tween-80) was 91 % of control and the T/C (dose: 200.0 mg/kg/injection, schedule: Q01DX001 (ip), vehicle: saline with Tween-80) was 90 % of control. The T/C (dose: 200.0 mg/kg/injection, schedule: Q04DX002 (ip), vehicle: saline with Tween-80) was 90 % of control, the T/C (dose: 400.0 mg/kg/injection, schedule: Q01DX001 (ip), vehicle: saline with Tween-80) was 88 % of control and the T/C (dose: 400.0 mg/kg/injection, schedule: Q04DX002 (ip), vehicle: saline with Tween-80) was 93 % of control.

In the case of CCc1c2cc3c(cc2cc2c4cc5c(cc4cc[n+]12)OCO5)OCO3 (tested in a mixture with another compound), the T/C (dose: 0.5 mg/kg/injection, schedule: Q01DX009 (ip), vehicle: Klucel (hydroxypropylcellulose) (HPC)) is reported as 117 % of control, the T/C (dose: 1.0 mg/kg/injection, schedule: Q01DX009 (ip), vehicle: Klucel (hydroxypropylcellulose) (HPC)) is reported as 121 % of control and the T/C (dose: 5.0 mg/kg/injection, schedule: Q01DX009 (ip), vehicle: Klucel (hydroxypropylcellulose) (HPC)) is reported as 153 % of control and 174 % of control.

For COc1cc(OC)c(C(=O)O)cc1Cl, the T/C (dose: 100.0 mg/kg/injection, schedule: Q04DX003 (ip), vehicle: Klucel (hydroxypropylcellulose) (HPC)) was 100 % of control, the T/C (dose: 200.0 mg/kg/injection, schedule: Q04DX003 (ip), vehicle: Klucel (hydroxypropylcellulose) (HPC)) was 101 % of control and the T/C (dose: 400.0 mg/kg/injection, schedule: Q04DX003 (ip), vehicle: Klucel (hydroxypropylcellulose) (HPC)) was 100 % of control.

For CC(=O)OCCCN1/C(=C/C=C2\CCC(/C=C/c3sc4cc5ccccc5cc4[n+]3CCCOC(C)=O)=C2N(c2ccccc2)c2ccccc2)Sc2cc3ccccc3cc21, the T/C (dose: 12.5 mg/kg/injection, schedule: Q01DX009 (ip), vehicle: Klucel (hydroxypropylcellulose) (HPC)) was 110 % of control, the T/C (dose: 25.0 mg/kg/injection, schedule: Q01DX009 (ip), vehicle: Klucel (hydroxypropylcellulose) (HPC)) was 110 % of control and the T/C [1] was 111 % of control.

For CC[C@H](CC[C@@H](C)C1CC[C@H]2[C@@H]3CC=C4C[C@@H](OP(=O)(N5CC5)N5CC5)CC[C@]4(C)[C@H]3CC[C@]12C)C(C)C (stereo partly specified), the T/C [4] was 152 % of control, the T/C [5] was 163 % of control and 171 % of control and the T/C [6] was 98 % of control.

For C=C(C)C1CC(=O)C2(C)C(C1)OC(=O)C2C(=O)OCC (stereo unspecified), the T/C (dose: 100.0 mg/kg/injection, schedule: Q04DX002 (ip), vehicle: Klucel (hydroxypropylcellulose) (HPC)) was 101 % of control, the T/C (dose: 200.0 mg/kg/injection, schedule: Q04DX002 (ip), vehicle: Klucel (hydroxypropylcellulose) (HPC)) was 103 % of control and 106 % of control and the T/C (dose: 400.0 mg/kg/injection, schedule: Q04DX002 (ip), vehicle: Klucel (hydroxypropylcellulose) (HPC)) was 103 % of control and 104 % of control.

In the case of Cc1ccc([C@H]2N[C@@H]2c2ccccn2)cc1, the T/C (dose: 60.0 mg/kg/injection, schedule: Q01DX005 (ip), vehicle: saline with Tween-80) is reported as 98 % of control and the T/C (dose: 120.0 mg/kg/injection, schedule: Q01DX005 (ip), vehicle: saline with Tween-80) is reported as 103 % of control.

CC1Cc2ccc3c(c2C(c2ccc4c(c2)OCO4)C1C)OCO3 (stereo unspecified) was tested, and the T/C (dose: 60.0 mg/kg/injection, schedule: Q01DX005 (ip), vehicle: Klucel + Tween-80) was 103 % of control, the T/C (dose: 120.0 mg/kg/injection, schedule: Q01DX005 (ip), vehicle: Klucel + Tween-80) was 97 % of control and the T/C (dose: 240.0 mg/kg/injection, schedule: Q01DX005 (ip), vehicle: Klucel + Tween-80) was 86 % of control.

For CCCCCCCCCCCCCCCCS(=O)(=O)N/N=C(\c1ccc(O)c(OC)c1)N1CCOCC1, the T/C [1] was 110 % of control, the T/C [2] was 101 % of control and the T/C [3] was 96 % of control.

With CCC1CN2CCc3cc(OC)c(OC)cc3C2CC1(O)C#N (stereo unspecified) the T/C [2] was 99 % of control and the T/C [3] was 102 % of control.
